Source: patent US8658646B2, “Pyrrolopyrazine kinase inhibitors” (Hoffmann-LaRoche Inc., priority 2011, dated 2014)
pIC50: −log10 of the molar value. Counter-ions that a name gives are not always drawn.

biological target: T1, recombinant human SYK360-635 (Homo sapiens, UniProt P43405); experiment: Determination of IC50 of Spleen Tyrosine Kinase (SYK) inhibition, 33P ATP filtration assay; format: biochemical; details: SYK aa 360-635 0.5 nM; ATP 20 μM, peptide 5 μM, 0.1% BSA; read-out: SYK_ENZYME_FILTRATION/v1, BSA
T1 construct: made in house

Structure (SMILES) | pIC50
CC(C)(CO)NC(=O)c1c[nH]c2ncc(-n3ncc4ccccc43)nc12 [Example I-321, 2-Indazol-1-yl-5H-pyrrolo[2,3-b]pyrazine-7-carboxylic acid (2-hydroxy-1,1-dimethyl-ethyl)-amide] | 6.82
CC(C)(C)NC(=O)c1c[nH]c2ncc(-n3ncc4cc(C(F)(F)F)ccc43)nc12 [Example I-337, 2-(5-Trifluoromethyl-indazol-1-yl)-5H-pyrrolo[2,3-b]pyrazine-7-carboxylic acid tert-butylamide] | 6.23
CC(C)NC(=O)c1c[nH]c2ncc(-c3c4c(n(C)[n+]3[O-])CCCC4)nc12 [Example I-293, 2-(1-Methyl-2-oxy-4,5,6,7-tetrahydro-1H-indazol-3-yl)-5H-pyrrolo[2,3-b]pyrazine-7-carboxylic acid isopropylamide] | 5.57
CC(C)NC(=O)c1c[nH]c2ncc(-c3nn(CCCN(C)C)c4ccc(OC(F)F)cc34)nc12 [Example I-450] | 7.88
CC(C)(C)NC(=O)c1c[nH]c2ncc(-c3nn(CCC4OCCCO4)c4ccc(OC(F)F)cc34)nc12 [Example I-297, 2-[5-Difluoromethoxy-1-(2-[1,3]dioxan-2-yl-ethyl)-1H-indazol-3-yl]-5H-pyrrolo[2,3-b]pyrazine-7-carboxylic acid tert-butylamide] | 7.55
CN(C)C(=O)CCn1nc(-c2cnc3[nH]cc(C(=O)NC(C)(C)C)c3n2)c2cc(OC(F)F)ccc21 [Example I-339, 2-[5-Difluoromethoxy-1-(2-dimethylcarbamoyl-ethyl)-1H-indazol-3-yl]-5H-pyrrolo[2,3-b]pyrazine-7-carboxylic acid tert-butylamide] | 7.75
CC(C)(C)NC(=O)c1c[nH]c2ncc(-n3ncc4cc(F)c(F)cc43)nc12 [Example I-327, 2-(5,6-Difluoro-indazol-1-yl)-5H-pyrrolo[2,3-b]pyrazine-7-carboxylic acid tert-butylamide] | 6.66
Cn1nc(-c2cnc3[nH]cc(C(=O)N[C@H]4C[C@@H](N)C4)c3n2)c2ccc(F)cc21 [Example I-271, 2-(6-Fluoro-1-methyl-1H-indazol-3-yl)-5H-pyrrolo[2,3-b]pyrazine-7-carboxylic acid (cis-3-amino-cyclobutyl)-amide] | 7.52
Cc1ccc2cnn(-c3cnc4[nH]cc(C(=O)NC(C)(C)C)c4n3)c2c1 [Example I-331, 2-(6-Methyl-indazol-1-yl)-5H-pyrrolo[2,3-b]pyrazine-7-carboxylic acid tert-butylamide] | 7.16
Cc1ccc2c(-c3cnc4[nH]cc(C(=O)NC(C)(C)CN(C)C)c4n3)nn(C)c2c1 [Example I-430, 2-(1,6-Dimethyl-1H-indazol-3-yl)-5H-pyrrolo[2,3-b]pyrazine-7-carboxylic acid (2-dimethylamino-1,1-dimethyl-ethyl)-amide] | 5.87
COc1ccc2c(cnn2-c2cnc3[nH]cc(C(=O)NC(C)(C)C)c3n2)c1 [Example I-323, 2-(5-Methoxy-indazol-1-yl)-5H-pyrrolo[2,3-b]pyrazine-7-carboxylic acid tert-butylamide] | 7.59
Cn1nc(-c2cnc3[nH]cc(C(=O)NC4(C)CCNC4)c3n2)c2ccc(F)cc21 (centres unmarked) [Example I-406, 2-(6-Fluoro-1-methyl-1H-indazol-3-yl)-5H-pyrrolo[2,3-b]pyrazine-7-carboxylic acid (3-methyl-pyrrolidin-3-yl)-amide] | 7.06
CC(C)NC(=O)c1c[nH]c2ncc(-c3nn(C)c4c3CCC(C)(C)C4)nc12 [Example I-279, 2-(1,6,6-Trimethyl-4,5,6,7-tetrahydro-1H-indazol-3-yl)-5H-pyrrolo[2,3-b]pyrazine-7-carboxylic acid isopropylamide] | 6.56
Cn1nc(-c2cnc3[nH]cc(C(=O)Nc4cccnc4)c3n2)c2ccc(Cl)cc21 [Example I-405, 2-(6-Chloro-1-methyl-1H-indazol-3-yl)-5H-pyrrolo[2,3-b]pyrazine-7-carboxylic acid pyridin-3-ylamide] | 6.73

More lines, now with the values ahead:

pIC50 | Structure (SMILES)
8.10 | COc1ccc2c(c1)c(-c1cnc3[nH]cc(C(=O)NC(C)(C)CO)c3n1)nn2C [Example I-288, 2-(5-Methoxy-1-methyl-1H-indazol-3-yl)-5H-pyrrolo[2,3-b]pyrazine-7-carboxylic acid (2-hydroxy-1,1-dimethyl-ethyl)-amide]
8.12 | CC(C)(N)CCCn1nc(-c2cnc3[nH]cc(C(=O)NC(C)(C)C)c3n2)c2cc(OC(F)F)ccc21 [Example I-454, 2-(1-(4-Amino-4-methylpentyl)-5-(difluoromethoxy)-1H-indazol-3-yl)-N-tert-butyl-5H-pyrrolo[3,2-b]pyrazine-7-carboxamide trifluoroacetate]
7.99 | Cn1nc(-c2cnc3[nH]cc(C(=O)NC4(C)CCCCC4)c3n2)c2ccc(F)cc21 [Example I-392, 2-(6-Fluoro-1-methyl-1H-indazol-3-yl)-5H-pyrrolo[2,3-b]pyrazine-7-carboxylic acid (1-methyl-cyclohexyl)-amide]
7.90 | Cn1nc(-c2cnc3[nH]cc(C(=O)NC(C)(C)C)c3n2)c2c1CCCC2 [Example I-295, 2-(1-Methyl-4,5,6,7-tetrahydro-1H-indazol-3-yl)-5H-pyrrolo[2,3-b]pyrazine-7-carboxylic acid tert-butylamide]
8.25 | Cc1ccc2c(-c3cnc4[nH]cc(C(=O)NC5(CO)CC5)c4n3)n[nH]c2c1 [Example I-432, 2-(6-Methyl-1H-indazol-3-yl)-5H-pyrrolo[2,3-b]pyrazine-7-carboxylic acid (1-hydroxymethyl-cyclopropyl)-amide]
8.64 | Cn1nc(-c2cnc3[nH]cc(C(=O)NC4(C)CC4)c3n2)c2ccc(Cl)cc21 [Example I-395, 2-(6-Chloro-1-methyl-1H-indazol-3-yl)-5H-pyrrolo[2,3-b]pyrazine-7-carboxylic acid (1-methyl-cyclopropyl)-amide]
8.12 | Cn1nc(-c2cnc3[nH]cc(C(=O)NC4(CO)CC4)c3n2)c2ccc(F)cc21 [Example I-374, 2-(6-Fluoro-1-methyl-1H-indazol-3-yl)-5H-pyrrolo[2,3-b]pyrazine-7-carboxylic acid (1-hydroxymethyl-cyclopropyl)-amide]
8.60 | Cn1cc(Cn2nc(-c3cnc4[nH]cc(C(=O)NC(C)(C)C)c4n3)c3cc(OC(F)F)ccc32)cn1 [Example I-274, 2-[5-Difluoromethoxy-1-(1-methyl-1H-pyrazol-4-ylmethyl)-1H-indazol-3-yl]-5H-pyrrolo[2,3-b]pyrazine-7-carboxylic acid tert-butylamide]
8.57 | CC(O)CCn1nc(-c2cnc3[nH]cc(C(=O)NC(C)(C)C)c3n2)c2cc(OC(F)F)ccc21 (centres unmarked) [Example I-447, N-tert-Butyl-2-(5-(difluoromethoxy)-1-(3-hydroxybutyl)-1H-indazol-3-yl)-5H-pyrrolo[3,2-b]pyrazine-7-carboxamide]
8.22 | CC(C)(C)NC(=O)c1c[nH]c2ncc(-c3nn(CC4CNC4)c4ccc(OC(F)F)cc34)nc12 [Example I-350, 2-(1-Azetidin-3-ylmethyl-5-difluoromethoxy-1H-indazol-3-yl)-5H-pyrrolo[2,3-b]pyrazine-7-carboxylic acid tert-butylamide]
8.43 | Cn1nc(-c2cnc3[nH]cc(C(=O)NC4(C)CCCC4)c3n2)c2ccc(F)cc21 [Example I-384, 2-(6-Fluoro-1-methyl-1H-indazol-3-yl)-5H-pyrrolo[2,3-b]pyrazine-7-carboxylic acid (1-methyl-cyclopentyl)-amide]
7.95 | Cn1nc(-c2cnc3[nH]cc(C(=O)NCC4CC4)c3n2)c2ccc(Cl)cc21 [Example I-317, 2-(6-Chloro-1-methyl-1H-indazol-3-yl)-5H-pyrrolo[2,3-b]pyrazine-7-carboxylic acid cyclopropylmethyl-amide]
7.93 | Cc1ccc2c(-c3cnc4[nH]cc(C(=O)NC(C)(C)C5CC5)c4n3)nn(C)c2c1 [Example I-428, 2-(1,6-Dimethyl-1H-indazol-3-yl)-5H-pyrrolo[2,3-b]pyrazine-7-carboxylic acid (1-cyclopropyl-1-methyl-ethyl)-amide]
8.36 | Cn1nc(-c2cnc3[nH]cc(C(=O)NC(C)(C)C)c3n2)c2ccc(C#N)cc21 [Example I-394, 2-(6-Cyano-1-methyl-1H-indazol-3-yl)-5H-pyrrolo[2,3-b]pyrazine-7-carboxylic acid tert-butylamide]
8.29 | CNCCCn1nc(-c2cnc3[nH]cc(C(=O)NC(C)(C)C)c3n2)c2cc(OC(F)F)ccc21 [Example I-345, 2-[5-Difluoromethoxy-1-(3-methylamino-propyl)-1H-indazol-3-yl]-5H-pyrrolo[2,3-b]pyrazine-7-carboxylic acid tert-butylamide]

same assay, conditions: SYK_ENZYME_FILTRATION/v1, BSA, SYK aa 360-635 0.5 nM; ATP 20 μM, peptide 5 μM, 0.1% BSA

pIC50 | Structure (SMILES)
7.84 | CC(C)(CO)NC(=O)c1c[nH]c2ncc(-n3nc(C4CCNCC4)c4ccccc43)nc12 [Example I-347, 2-(3-Piperidin-4-yl-indazol-1-yl)-5H-pyrrolo[2,3-b]pyrazine-7-carboxylic acid (2-hydroxy-1,1-dimethyl-ethyl)-amide]

biological target: T2, JAK3: Recombinant human kinase domain (Homo sapiens, UniProt P52333); experiment: Determination of IC50 of Janus Kinase (JAK) inhibition, radioactive end-point 33P-ATP assay, JAK3; format: biochemical; details: ATP 1.5 uM, peptide 50 uM, 20 minutes, read-out: JAK3-INHIB-DR/v1~NO ADDITIVE~Enzyme_Conc = 100
T2 construct: JAK3: Recombinant human kinase domain from Millipore (Cat #14-629) or prepared; purchased Millipore 14-629
T2 sequence (P52333 822-1111 limits assumed): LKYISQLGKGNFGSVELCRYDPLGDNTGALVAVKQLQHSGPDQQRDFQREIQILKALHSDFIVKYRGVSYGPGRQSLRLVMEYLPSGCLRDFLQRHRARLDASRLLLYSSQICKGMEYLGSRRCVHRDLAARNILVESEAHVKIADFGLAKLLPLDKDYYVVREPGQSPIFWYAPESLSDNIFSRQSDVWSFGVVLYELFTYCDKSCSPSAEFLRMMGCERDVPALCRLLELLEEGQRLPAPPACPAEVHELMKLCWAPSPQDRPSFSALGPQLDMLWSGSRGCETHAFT
Procedure: Determination of IC50 of Janus Kinase (JAK) Inhibition:
Assay conditions used are described below: • Assay Buffer: JAK Kinase Buffer: 50 mM Hepes [pH 7.2], 10 mM MgCl2, 1 mM DTT, 1 mg/ml BSA. The assay was carried out in this buffer. • Assay Format The kinase activity of all three JAK kinases was measured using a radioactive, end-point assay and with trace amounts of ^33P-ATP. The assays were carried out in 96-well polypropylene plates. Experimental Method:
All concentrations were final in the reaction mixture and all incubations were carried at room temperature. […] Final concentration of DMSO in the reaction was 10%. • 2) Compounds were preincubated with enzyme (0.5 nM JAK3 (commercially available), 0.2 nM JAK3 (prepared), 1 nM JAK2, 5 nM JAK1) for 10 minutes. • 3) Reactions were initiated by the addition of a cocktail of the two substrates (ATP and peptide premixed in the JAK Kinase Buffer). […] JAK1 assay was carried out at an ATP concentration of 10 uM and a peptide concentration of 50 uM. • 4) The duration of the assay for JAK2 and JAK3 is 20 minutes. JAK1 assay was carried out for 40 minutes. With all three enzymes, reactions were terminated by the addition of 0.5M EDTA to a final concentration of 100 mM. • 5) 25 ul of terminated reactions were transferred to 150 ul of a 7.5% (v/v) slurry of streptavidin-coated sepharose beads in MgCl2- and CaCl2-free 1× Phosphate Buffered Saline containing 50 mM of EDTA in 96-well, 1.2 um MultiScreen-BV filter plates. • 6) After a 30-minute incubation, the beads were washed under vacuum with the following buffers: • a. 3 to 4 washes with 200 ul of 2M NaCl. • b. 3 to 4 washes with 200 ul of 2M NaCl plus 1% (v/v) phosphoric acid. • c. 1 wash with water. • 7) Washed plates were dried in a 60° C. oven for between 1 to 2 hours. • 8) 70 ul of Microscint 20 scintillation fluid was added to each well of filter plates and after at least 30 minutes of incubation, radioactive counts were measured in a Perkinelmer microplate scintillation counter.

pIC50 | Structure (SMILES)
8.45 | C[C@@H](NC(=O)c1c[nH]c2ncc(-c3nn(CCc4ccccn4)c4cc(Cl)ccc34)nc12)C(=O)N1CC(C#N)C1 [Example I-232, 2-[6-Chloro-1-(2-pyridin-2-yl-ethyl)-1H-indazol-3-yl]-5H-pyrrolo[2,3-b]pyrazine-7-carboxylic acid [(R)-2-(3-cyano-azetidin-1-yl)-1-methyl-2-oxo-ethyl)-amide]
8.32 | CC(O)Cn1nc(-c2cnc3[nH]cc(C(=O)N[C@H](C)C(=O)N4CC(C#N)C4)c3n2)c2ccc(Cl)cc21 (stereo partly drawn) [Example I-95, 2-[6-Chloro-1-(2-hydroxy-propyl)-1H-indazol-3-yl]-5H-pyrrolo[2,3-b]pyrazine-7-carboxylic acid [(R)-2-(3-cyano-azetidin-1-yl)-1-methyl-2-oxo-ethyl]-amide]
